In ChEMBL document CHEMBL6083262, “Stereorandomized Oncocins with Preserved Ribosome Binding and Antibacterial Activity” (J Med Chem, 2024):
Calls of active or inactive are those of the source. No cut-off for these calls is given here. Non-standard residues stand in square brackets, D forms with d. Residues, ends and D or L forms follow the SMILES beside them. ξ: configuration not given here. ξY = NC(Cc1ccc(O)cc1)C(=O)O; ξR = N=C(N)NCCCC(N)C(=O)O; ξN = NC(=O)CC(N)C(=O)O; Nleu = CC(C)CNCC(=O)O; ξI = CCC(C)C(N)C(=O)O; Nlys = NCCCCNCC(=O)O; ξP = O=C(O)C1CCCN1

What was measured:
[1] = Hemolytic activity in human RBC incubated for 4 hrs; type: toxicity, cell-based; settings: erythrocyte
Pseudomonas aeruginosa [2] = assay: Antimicrobial activity against Pseudomonas aeruginosa PAO1 incubated for 16 to 20 hrs in full muller hinton medium by broth microdilution method; type: functional; settings: time 16-20 hrs
Staphylococcus aureus [3] = assay: Antimicrobial activity against methicillin-resistant Staphylococcus aureus COL incubated for 16 to 20 hrs in full muller hinton medium by broth microdilution method; type: functional; settings: time 16-20 hrs
rRNA = assay: Binding affinity to [gamma32 P-ATP] labeled Escherichia coli MG1655 23S ribosomal RNA (5-CCCTTGGGACCTACTTC-3') at U2506 position assessed as increase in band intensity at 1 uM incubated for 2.5 hrs in full muller hinton medium by CMCT based gel electrophoresis; type: nucleic-acid assay
Staphylococcus aureus [4] = assay: Antimicrobial activity against methicillin-resistant Staphylococcus aureus COL incubated for 16 to 20 hrs in 12.5 % muller hinton medium by broth microdilution method; type: functional; settings: time 16-20 hrs
Acinetobacter baumannii = assay: Antimicrobial activity against Acinetobacter baumannii ATCC 19606 incubated for 16 to 20 hrs in full muller hinton medium by broth microdilution method; type: functional; settings: time 16-20 hrs
Klebsiella pneumoniae = assay: Antimicrobial activity against Klebsiella pneumoniae NCTC 418 incubated for 16 to 20 hrs in full muller hinton medium by broth microdilution method; type: functional; settings: time 16-20 hrs
Pseudomonas aeruginosa [5] = assay: Antimicrobial activity against Pseudomonas aeruginosa PAO1 incubated for 16 to 20 hrs in 12.5 % muller hinton medium by broth microdilution method; type: functional; settings: time 16-20 hrs

SMILES	MHC [1]	MIC (Pseudomonas aeruginosa [2])	MIC (Staphylococcus aureus [3])	Activity (rRNA)	MIC (Staphylococcus aureus [4])	MIC (Acinetobacter baumannii)	MIC (Klebsiella pneumoniae)	MIC (Pseudomonas aeruginosa [5])
CC(C)C[C@H](NC(=O)CN(CC(C)C)C(=O)[C@H](CC(C)C)NC(=O)CN(CCCCN)C(=O)[C@H](CC(C)C)NC(=O)CN(CC(C)C)C(=O)[C@H](CCCCN)NC(=O)CN(CC(C)C)C(=O)[C@H](CC(C)C)NC(=O)CN(CCCCN)C(=O)[C@@H](N)CCCCN)C(N)=O (H-K[Nlys]L[Nleu]K[Nleu]L[Nlys]L[Nleu]L-NH2)	> 2000 µg/mL	–	–	–	–	–	–	–
CC[C@H](C)[C@H](NC(=O)[C@H](CCCNC(=N)N)NC(=O)[C@H](CCCNC(=N)N)NC(=O)[C@@H]1CCCN1C(=O)[C@H]1CCCN1C(=O)[C@H](CCCNC(=N)N)NC(=O)[C@@H]1CCCN1C(=O)[C@H](CCCNC(=N)N)NC(=O)[C@@H]1CCCN1C(=O)[C@H](CC(C)C)NC(=O)[C@H](Cc1ccc(O)cc1)NC(=O)[C@@H]1CCCN1C(=O)[C@@H]1CCCN1C(=O)[C@H](CCCCN)NC(=O)[C@H](CC(=O)O)NC(=O)[C@@H](N)C(C)C)C(=O)N[C@@H](Cc1ccc(O)cc1)C(=O)N[C@@H](CC(N)=O)C(=O)N[C@@H](CCCNC(=N)N)C(N)=O (H-VDKPPYLPRPR[dP]PRRIYNR-NH2)	> 1000 µg/mL	> 64 µg/mL	> 64 µg/mL	–	–	–	–	–
CC[C@@H](C)[C@@H](NC(=O)[C@@H](CCCNC(=N)N)NC(=O)[C@@H](CCCNC(=N)N)NC(=O)[C@H]1CCCN1C(=O)[C@H]1CCCN1C(=O)[C@H](CCCNC(=N)N)NC(=O)[C@@H]1CCCN1C(=O)[C@H](CCCNC(=N)N)NC(=O)[C@@H]1CCCN1C(=O)[C@H](CC(C)C)NC(=O)[C@H](Cc1ccc(O)cc1)NC(=O)[C@@H]1CCCN1C(=O)[C@@H]1CCCN1C(=O)[C@H](CCCCN)NC(=O)[C@H](CC(=O)O)NC(=O)[C@@H](N)C(C)C)C(=O)N[C@H](Cc1ccc(O)cc1)C(=O)N[C@H](CC(N)=O)C(=O)N[C@H](CCCNC(=N)N)C(N)=O (H-VDKPPYLPRPR[dP][dP][dR][dR][dI][dY][dN][dR]-NH2)	> 1000 µg/mL	> 64 µg/mL	> 64 µg/mL	Active	–	–	–	–
CC[C@H](C)[C@H](NC(=O)[C@H](CCCNC(=N)N)NC(=O)[C@H](CCCNC(=N)N)NC(=O)[C@@H]1CCCN1C(=O)[C@@H]1CCCN1C(=O)[C@@H](CCCNC(=N)N)NC(=O)[C@@H]1CCCN1C(=O)[C@H](CCCNC(=N)N)NC(=O)[C@@H]1CCCN1C(=O)[C@H](CC(C)C)NC(=O)[C@H](Cc1ccc(O)cc1)NC(=O)[C@@H]1CCCN1C(=O)[C@@H]1CCCN1C(=O)[C@H](CCCCN)NC(=O)[C@H](CC(=O)O)NC(=O)[C@@H](N)C(C)C)C(=O)N[C@@H](Cc1ccc(O)cc1)C(=O)N[C@@H](CC(N)=O)C(=O)N[C@@H](CCCNC(=N)N)C(N)=O (H-VDKPPYLPRP[dR]PPRRIYNR-NH2)	> 1000 µg/mL	> 64 µg/mL	> 64 µg/mL	–	> 64 µg/mL	–	–	–
CC[C@@H](C)[C@@H](NC(=O)[C@@H](CCCNC(=N)N)NC(=O)[C@@H](CCCNC(=N)N)NC(=O)[C@H]1CCCN1C(=O)[C@H]1CCCN1C(=O)[C@@H](CCCNC(=N)N)NC(=O)[C@@H]1CCCN1C(=O)[C@H](CCCNC(=N)N)NC(=O)[C@@H]1CCCN1C(=O)[C@H](CC(C)C)NC(=O)[C@H](Cc1ccc(O)cc1)NC(=O)[C@@H]1CCCN1C(=O)[C@@H]1CCCN1C(=O)[C@H](CCCCN)NC(=O)[C@H](CC(=O)O)NC(=O)[C@@H](N)C(C)C)C(=O)N[C@H](Cc1ccc(O)cc1)C(=O)N[C@H](CC(N)=O)C(=O)N[C@H](CCCNC(=N)N)C(N)=O (H-VDKPPYLPRP[dR][dP][dP][dR][dR][dI][dY][dN][dR]-NH2)	> 1000 µg/mL	–	> 64 µg/mL	Active	> 64 µg/mL	–	–	–
CC[C@H](C)[C@H](NC(=O)[C@H](CCCNC(=N)N)NC(=O)[C@H](CCCNC(=N)N)NC(=O)[C@@H]1CCCN1C(=O)[C@@H]1CCCN1C(=O)[C@H](CCCNC(=N)N)NC(=O)[C@H]1CCCN1C(=O)[C@H](CCCNC(=N)N)NC(=O)[C@@H]1CCCN1C(=O)[C@H](CC(C)C)NC(=O)[C@H](Cc1ccc(O)cc1)NC(=O)[C@@H]1CCCN1C(=O)[C@@H]1CCCN1C(=O)[C@H](CCCCN)NC(=O)[C@H](CC(=O)O)NC(=O)[C@@H](N)C(C)C)C(=O)N[C@@H](Cc1ccc(O)cc1)C(=O)N[C@@H](CC(N)=O)C(=O)N[C@@H](CCCNC(=N)N)C(N)=O (H-VDKPPYLPR[dP]RPPRRIYNR-NH2)	> 1000 µg/mL	> 64 µg/mL	> 64 µg/mL	–	> 64 µg/mL	–	–	–
CCC(C)C(NC(=O)C(CCCNC(=N)N)NC(=O)C(CCCNC(=N)N)NC(=O)C1CCCN1C(=O)C1CCCN1C(=O)C(CCCNC(=N)N)NC(=O)C1CCCN1C(=O)[C@H](CCCNC(=N)N)NC(=O)[C@@H]1CCCN1C(=O)[C@H](CC(C)C)NC(=O)[C@H](Cc1ccc(O)cc1)NC(=O)[C@@H]1CCCN1C(=O)[C@@H]1CCCN1C(=O)[C@H](CCCCN)NC(=O)[C@H](CC(=O)O)NC(=O)[C@@H](N)C(C)C)C(=O)NC(Cc1ccc(O)cc1)C(=O)NC(CC(N)=O)C(=O)NC(CCCNC(=N)N)C(N)=O (stereo partly specified) (H-VDKPPYLPR[ξP][ξR][ξP][ξP][ξR][ξR][ξI][ξY][ξN][ξR]-NH2)	> 1000 µg/mL	–	> 64 µg/mL	–	–	–	–	–
CC[C@H](C)[C@H](NC(=O)[C@H](CCCNC(=N)N)NC(=O)[C@H](CCCNC(=N)N)NC(=O)[C@@H]1CCCN1C(=O)[C@@H]1CCCN1C(=O)[C@H](CCCNC(=N)N)NC(=O)[C@@H]1CCCN1C(=O)[C@@H](CCCNC(=N)N)NC(=O)[C@@H]1CCCN1C(=O)[C@H](CC(C)C)NC(=O)[C@H](Cc1ccc(O)cc1)NC(=O)[C@@H]1CCCN1C(=O)[C@@H]1CCCN1C(=O)[C@H](CCCCN)NC(=O)[C@H](CC(=O)O)NC(=O)[C@@H](N)C(C)C)C(=O)N[C@@H](Cc1ccc(O)cc1)C(=O)N[C@@H](CC(N)=O)C(=O)N[C@@H](CCCNC(=N)N)C(N)=O (H-VDKPPYLP[dR]PRPPRRIYNR-NH2)	> 1000 µg/mL	> 64 µg/mL	> 64 µg/mL	–	> 64 µg/mL	> 64 µg/mL	–	–
CCC(C)C(NC(=O)C(CCCNC(=N)N)NC(=O)C(CCCNC(=N)N)NC(=O)C1CCCN1C(=O)C1CCCN1C(=O)C(CCCNC(=N)N)NC(=O)C1CCCN1C(=O)C(CCCNC(=N)N)NC(=O)[C@@H]1CCCN1C(=O)[C@H](CC(C)C)NC(=O)[C@H](Cc1ccc(O)cc1)NC(=O)[C@@H]1CCCN1C(=O)[C@@H]1CCCN1C(=O)[C@H](CCCCN)NC(=O)[C@H](CC(=O)O)NC(=O)[C@@H](N)C(C)C)C(=O)NC(Cc1ccc(O)cc1)C(=O)NC(CC(N)=O)C(=O)NC(CCCNC(=N)N)C(N)=O (stereo partly specified) (H-VDKPPYLP[ξR][ξP][ξR][ξP][ξP][ξR][ξR][ξI][ξY][ξN][ξR]-NH2)	> 1000 µg/mL	> 64 µg/mL	> 64 µg/mL	–	–	–	–	–
CC[C@H](C)[C@H](NC(=O)[C@H](CCCNC(=N)N)NC(=O)[C@H](CCCNC(=N)N)NC(=O)[C@@H]1CCCN1C(=O)[C@@H]1CCCN1C(=O)[C@H](CCCNC(=N)N)NC(=O)[C@@H]1CCCN1C(=O)[C@H](CCCNC(=N)N)NC(=O)[C@H]1CCCN1C(=O)[C@H](CC(C)C)NC(=O)[C@H](Cc1ccc(O)cc1)NC(=O)[C@@H]1CCCN1C(=O)[C@@H]1CCCN1C(=O)[C@H](CCCCN)NC(=O)[C@H](CC(=O)O)NC(=O)[C@@H](N)C(C)C)C(=O)N[C@@H](Cc1ccc(O)cc1)C(=O)N[C@@H](CC(N)=O)C(=O)N[C@@H](CCCNC(=N)N)C(N)=O (H-VDKPPYL[dP]RPRPPRRIYNR-NH2)	> 1000 µg/mL	> 64 µg/mL	> 64 µg/mL	–	–	> 64 µg/mL	> 64 µg/mL	–
CCC(C)C(NC(=O)C(CCCNC(=N)N)NC(=O)C(CCCNC(=N)N)NC(=O)C1CCCN1C(=O)C1CCCN1C(=O)C(CCCNC(=N)N)NC(=O)C1CCCN1C(=O)C(CCCNC(=N)N)NC(=O)C1CCCN1C(=O)[C@H](CC(C)C)NC(=O)[C@H](Cc1ccc(O)cc1)NC(=O)[C@@H]1CCCN1C(=O)[C@@H]1CCCN1C(=O)[C@H](CCCCN)NC(=O)[C@H](CC(=O)O)NC(=O)[C@@H](N)C(C)C)C(=O)NC(Cc1ccc(O)cc1)C(=O)NC(CC(N)=O)C(=O)NC(CCCNC(=N)N)C(N)=O (stereo partly specified) (H-VDKPPYL[ξP][ξR][ξP][ξR][ξP][ξP][ξR][ξR][ξI][ξY][ξN][ξR]-NH2)	> 1000 µg/mL	> 64 µg/mL	> 64 µg/mL	–	–	–	–	–
CC[C@H](C)[C@H](NC(=O)[C@H](CCCNC(=N)N)NC(=O)[C@H](CCCNC(=N)N)NC(=O)[C@@H]1CCCN1C(=O)[C@@H]1CCCN1C(=O)[C@H](CCCNC(=N)N)NC(=O)[C@@H]1CCCN1C(=O)[C@H](CCCNC(=N)N)NC(=O)[C@@H]1CCCN1C(=O)[C@H](CC(C)C)NC(=O)[C@@H](Cc1ccc(O)cc1)NC(=O)[C@@H]1CCCN1C(=O)[C@@H]1CCCN1C(=O)[C@H](CCCCN)NC(=O)[C@H](CC(=O)O)NC(=O)[C@@H](N)C(C)C)C(=O)N[C@@H](Cc1ccc(O)cc1)C(=O)N[C@@H](CC(N)=O)C(=O)N[C@@H](CCCNC(=N)N)C(N)=O (H-VDKPP[dY]LPRPRPPRRIYNR-NH2)	> 1000 µg/mL	> 64 µg/mL	> 64 µg/mL	–	–	> 64 µg/mL	–	–
CC[C@H](C)[C@H](NC(=O)[C@H](CCCNC(=N)N)NC(=O)[C@H](CCCNC(=N)N)NC(=O)[C@@H]1CCCN1C(=O)[C@@H]1CCCN1C(=O)[C@H](CCCNC(=N)N)NC(=O)[C@@H]1CCCN1C(=O)[C@H](CCCNC(=N)N)NC(=O)[C@@H]1CCCN1C(=O)[C@H](CC(C)C)NC(=O)[C@H](Cc1ccc(O)cc1)NC(=O)[C@@H]1CCCN1C(=O)[C@H]1CCCN1C(=O)[C@H](CCCCN)NC(=O)[C@H](CC(=O)O)NC(=O)[C@@H](N)C(C)C)C(=O)N[C@@H](Cc1ccc(O)cc1)C(=O)N[C@@H](CC(N)=O)C(=O)N[C@@H](CCCNC(=N)N)C(N)=O (H-VDK[dP]PYLPRPRPPRRIYNR-NH2)	> 1000 µg/mL	> 64 µg/mL	> 64 µg/mL	–	–	–	–	> 16 µg/mL
